Measured values: patent EP1201661A1, “HETEROAROMATIC RING COMPOUNDS” (Sumitomo Pharmaceuticals Company, Limited, priority 1999, dated 2001)

System: adjuvant-induced arthritis
Assay: Inhibition of adjuvant-induced arthritis (hind paw swelling)
Type: in vivo, Male SD rats
Conditions: 5 consecutive days from day 17 after adjuvant
Excerpt: Inhibition of adjuvant-induced arthritis
Male SD rats were used as test subjects. Heat-kllled Mycobacterium butyricum suspended in liquid paraffin in a concentration of 0.5% was subcutaneously injected into the right hind paw of each rat. After 17 days, animals showing the clear onset of secondary inflammation also in the left hind paw were selected, and each compound of the present invention suspended in a 0.5% methyl cellulose solution was orally administered to the animals for 5 consecutive days. The volume of each hind paw at the completion of the administration was compared with that at the beginning of the administration, and the swelling-inhibitory effect was evaluated by the difference between them.

[1] = oral dose 50 mg/kg, volume at completion vs beginning of administration

SMILES	Increase of edema volume (ml) Injected paw [1] [mL]	Increase of edema volume (ml) Non-injected paw [1] [mL]	Increase of edema volume (ml) Injected paw (oral dose 25 mg/kg) [mL]	Increase of edema volume (ml) Non-injected paw (oral dose 25 mg/kg) [mL]
CCNC(=Nc1nc(C(C)c2cccc(C(=O)c3ccccc3)c2)n[nH]1)N1CCOCC1.Cl (stereo not shown) [Experiment 75, N'-{3-[1-(3-Benzoylphenyl)ethyl]-1H-1,2,4-triazol-5-yl}-N-ethyl-4-morpholinecarboximidamide hydrochloride]	-1.08	-0.53	–	–
CC(c1cccc(C(=O)c2ccccc2)c1)c1n[nH]c(N)n1.Cl (stereo not shown) [Experiment 320, {3-[1-(5-Amino-1H-1,2,4-triazol-3-yl)ethyl]phenyl}(phenyl)methanone hydrochloride]	–	–	-1.20	-0.53
CC(c1cccc(C(=O)c2ccccc2)c1)c1nc(N=C(N(C)C)N2CCOCC2)ns1.Cl (stereo not shown) [Experiment 73, N'-{5-[1-(3-Benzoylphenyl)ethyl]-1,2,4-thiadiazol-3-yl}-N,N-dimethyl-4-morpholinecarboximidamide hydrochloride]	-0.95	-0.78	–	–
CNC(=Nc1cc(C(C)c2cccc(C(=O)c3ccccc3)c2)ns1)N1CCOCC1.Cl (stereo not shown) [Experiment 1, N'-{3-[1-(3-Benzoylphenyl)ethyl]-5-isothiazolyl}-N-methyl-4-morpholine carboximidamide hydrochloride]	0.12	0.02	–	–
CC(c1ccc(-c2ccccc2)c(F)c1)c1cc(N=C(N)N2CCOCC2)n(C)n1.Cl.Cl (stereo not shown) [Experiment 49, N'-{3-[1-(2-Fluoro[1,1'-biphenyl]-4-yl)ethyl]-1-methyl-1H-pyrazol-5-yl}-4-morpholinecarboximidamide dihydrochloride]	-0.24	-0.17	–	–
